PubChem BioAssay (NCI)
Where “and” joins values, the source holds several entries; their conditions need not be identical. Equal values may be shown once.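 96-well plates; 48 h exposure; 5 concentrations. Endpoints by linear interpolation between flanking doses. Not reached: highest tested concentration assigned. Here, GI50 denotes the concentration required for 50% inhibition of growth. TGI marks complete inhibition of growth.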

Tests used:
Assay in all cases: inhibition of tumour cell growth, NCI panel, 48 h
[1] = test system: EKVX NSCLC
[2] = test system: HCC-2998 colon
[3] = test system: HOP-62 NSCLC
[4] = test system: MALME-3M melanoma
[5] = test system: MCF7 breast
[6] = test system: MOLT-4 leukemia
[7] = test system: NCI-H226 lung
[8] = test system: OVCAR-8 ovarian
[9] = test system: SF-295 CNS
[10] = test system: UACC-257 melanoma

| Compound | GI50 [1] [µM] | TGI [1] | GI50 [2] [µM] | TGI [2] [µM] | GI50 [3] [µM] | TGI [3] | GI50 [4] | TGI [4] [µM] | GI50 [5] | TGI [5] [µM] | GI50 [6] [µM] | TGI [6] [µM] | GI50 [7] [µM] | TGI [7] [µM] | GI50 [8] | TGI [8] [µM] | GI50 [9] | TGI [9] | GI50 [10] [µM] | TGI [10] [µM] |
| --- | --- | --- | --- | --- | --- | --- | --- | --- | --- | --- | --- | --- | --- | --- | --- | --- | --- | --- | --- | --- |
| CCc1cccc(C)c1NC(=O)c1sc2nc3c(cc2c1N)CCCCC3 | 4.17 | > 100 µM | 12.4 | 85.8 | 4.34 | > 100 µM | 9.11 µM | 84.4 | 1.86 µM | > 100 | 4.56 | > 100 | 14.5 | > 100 | 3.72 µM | > 100 | 3.05 µM | > 100 µM | 18.2 | > 100 |
| O=C(CO[N+](=O)[O-])Nc1ccc(C(=O)/C=C/c2ccc(Cl)cc2)cc1 | 15 | 74.6 µM | 1.75 | 3.64 | 3.11 | 9.73 µM | 2.13 µM | 6.61 | 0.666 µM | 6.44 | 4.68 | 69.4 | 5.15 | 29 | 3.24 µM | 14 | 5.82 µM | 29.2 µM | 4.33 | 15.9 |
| CCN(Cc1cccc(F)c1)c1ccc(CO)c(Cl)c1 | 22.3 | > 76 µM | 10.7 | 35.5 | 1.02 | > 37.6 µM | 20 µM | 50.1 | 0.216 µM | 17.8 | 25.2 | > 74.5 | 0.0467 | 0.18 | 17.3 µM | > 60.9 | 1.21 µM | > 45.3 µM | 0.114 | 0.344 |
| CN[C@H]1C=C[C@@H]2/C=C(C)/C=C/[C@@H](C)[C@H]([C@H](C)[C@H](O)[C@@H](C)NC(C)=O)OC(=O)/C=C/C=C(C)\C=C\[C@]2(C)C1 | – | > 49 µM | 5.5 | > 49 | 0.00765 | > 49 µM | 0.0808 µM and 0.0458 µM | 21.7 | < 0.001 µM and 0.0049 µM | > 49 | 16.6 | > 49 | 0.00743 | 10.3 | 0.00922 µM | > 49 | < 0.001 µM and 0.0049 µM | – | – | > 49 |
| O=C(CC(c1ccccc1)c1c(O)c2ccccc2oc1=O)c1ccccc1 (stereo not given) | – | > 100 µM | – | > 100 | – | > 100 µM | – | > 100 | – | > 100 | – | > 100 | – | > 100 | – | > 100 | – | > 100 µM | – | > 100 |
| CN(C)CCCOc1ccc(-c2ccc3ncc4c(c3c2)n(C2CCOCC2)c(=O)n4C)cn1 | 0.975 | 12.2 µM | 2.51 | 15.6 | 1.87 | 12.5 µM | 0.354 µM | 3.41 | 0.545 µM | 14.5 | 1.51 | 14.4 | 1.73 | 15.2 | 3.24 µM | 17.2 | 1.29 µM | 7.81 µM | 1.94 | 12.2 |
| CC[N+](CC)=c1sc2c(s1)C(c1ccc(Cl)cc1)Oc1ccc(Cl)cc1-2 (stereo not given) | 1.96 | 9.53 µM | 1.52 | 3.74 | 1.22 | 5.56 µM | 1.44 µM | 3.88 | 1.54 µM | 4.73 | 2.16 | 6.41 | 5.56 | 33.1 | 1.97 µM | 5.41 | 1.09 µM | 4.64 µM | 2.33 | 5.46 |
| S=C(Nc1ccc(Br)cc1)Nc1ccc(Br)cc1 | 3.72 | > 100 µM | 5.04 | > 100 | 83.9 | > 100 µM | 11.7 µM | > 100 | 3.87 µM | > 100 | 6.59 | > 100 | > 100 | > 100 | 18.2 µM | > 100 | 2.99 µM | > 100 µM | 7.86 | > 100 |
| CCC[CH2][Sn]([CH2]CCC)([CH2]CCC)[O]c1ccc(Cl)cc1Cl | 0.0948 | 0.302 µM | 0.0949 | 0.226 | 0.146 | 0.294 µM | 0.0973 µM | 0.238 | 0.125 µM | 0.255 | 0.165 | 2.77 | – | – | 0.163 µM | 0.354 | 0.15 µM | 0.307 µM | 0.154 | 0.305 |
| C=C1C(=O)O[C@@H]2C[C@@H](C)[C@@H]3C=CC(=O)[C@@]3(C)[C@@H](OC(=O)CC(=O)O[C@H]3[C@@H]4C(=C)C(=O)O[C@@H]4C[C@@H](C)[C@@H]4C=CC(=O)[C@]43C)[C@H]12 | – | 0.32 µM | – | 0.303 | – | 1.18 µM | – | 0.0368 | – | 0.21 | – | < 0.0304 | – | 0.3 | – | 0.0591 | – | 0.302 µM | – | 0.0812 |
| [Cl][Hg][Cl] | 19.9 | 34.6 µM | 17.5 | 31.7 | 16.7 | 31.3 µM | 9.16 µM | 22.1 | 12.5 µM | > 56 | 4.08 | > 37.7 | 25.1 | 47.7 | 21.6 µM | 56.3 | 16.7 µM | 31.9 µM | 17.7 | 34.9 |
| COC(=O)CCc1c[nH]c2ccc(N(CCCl)CCCl)cc12 | 21.8 | > 77.7 µM | 8.33 | 27.1 | 1.04 | 16.5 µM | 5.95 µM | 30.1 | 0.572 µM | 22.9 | 0.826 | > 100 | 1.53 | 41 | 3.05 µM | > 60.5 | 0.826 µM | > 58.8 µM | 5.21 | 34.3 |
| Cc1nn(-c2nc3ccccc3[nH]2)c(N)c1-c1ccc(Cl)cc1 | – | – | 5.12 | > 100 | 7.29 | > 100 µM | 4.69 µM | > 100 | 4.31 µM | > 100 | 3.54 | > 100 | 8.66 | > 100 | 4.36 µM | > 100 | – | – | 2.63 | 55.8 |
| CC(=O)OCC1OC(n2c(-c3ccc(Cl)cc3)ccc(C#N)c2=S)C(OC(C)=O)C(OC(C)=O)C1OC(C)=O (stereo not given) | – | > 82.9 µM and 80.1 µM | – | > 100 | – | 26.1 µM and > 100 µM | – | > 100 | – | > 100 | – | > 100 | – | > 100 | 16.4 µM and 34.9 µM | > 100 | 13.8 µM and > 100 µM | 35 µM and > 100 µM | – | > 100 |
| Nc1ccc(C2=NN(c3ccccc3)C(c3ccc(Cl)cc3)C2)cc1 (stereo not given) | – | – | 1.86 | 3.29 | 2.01 | 5.05 µM | 16.2 µM | 43.8 | 1.32 µM | 3.82 | 2.23 | 6.61 | 2.13 | 6.38 | 3.15 µM | 13.2 | 9 µM | 24.9 µM | 3.13 | 11.2 |
| COc1ccc(-c2cc(=O)c3ccc(C)nc3[nH]2)cc1 | – | > 100 µM | – | > 100 | – | > 100 µM | – | > 100 | – | > 100 | – | > 100 | – | > 100 | – | > 100 | 88.3 µM | > 100 µM | – | > 100 |
| OCc1ccc(-c2ccc(-c3ccc(CO)o3)[se]2)o1 | – | – | > 100 | > 100 | > 80.4 | > 100 µM | > 100 µM | > 100 | 5.53 µM | > 100 | 41.2 | > 100 | 0.3 | 1.55 | 55.8 µM | > 100 | > 40.8 µM | > 100 µM | 1.49 | > 20.8 |
| C#Cc1cccc(N2C(=O)CCC2=O)c1 | – | 34.3 µM | – | 29.5 | – | – | – | 28.2 | – | 44.5 | – | 23 | – | 35 | – | 36.1 | – | 30.1 µM | – | 29.9 |
| CCCNNC(=O)/C=C/c1ccc(CNCCc2c(C)[nH]c3ccccc23)cc1 | 0.074 | 3.73 µM | 0.0449 | 0.115 | 0.031 | 0.785 µM | 0.015 µM | 1.22 | 0.0252 µM | 3.6 | 0.0152 | 4.09 | 0.0291 | 0.131 | 0.0149 µM | 3.92 | 0.0471 µM | 0.171 µM | 0.0323 | 0.627 |
| C=C1C(=O)O[C@H]2[C@H]1CC/C(COC(=O)CSCCSCC(=O)OC/C1=C/CC[C@@]3(C)O[C@H]3[C@H]3OC(=O)C(=C)[C@@H]3CC1)=C\CC[C@@]1(C)O[C@@H]21 | 1.66 | 3.7 µM | 1.85 | 3.52 | 2.45 | 7.38 µM | 1.48 µM | 3.33 | 0.832 µM | 2.66 | 1.16 | 3.89 | 3.51 | 13.6 | 1.97 µM | 4.6 | 2.29 µM | 5.76 µM | 1.93 | 3.93 |
| COc1cc(/C=C2\C(=O)Nc3cc(C)c(O)cc32)cc(OC)c1OC | 4.08 | 39 µM | 5.18 | 17.5 | 11.7 | 37.4 µM | 0.454 µM | 9.11 | 2.44 µM | 26.4 | 3.32 | 16.7 | 15.6 | 46.5 | 7.33 µM | > 67.3 | 6.03 µM | 26.3 µM | 13.5 | 42.7 |
| O=c1c(Oc2ccc(F)cc2F)cc2cnc(NC3CCOCC3)nc2n1CCCO | – | – | > 25 | > 25 | > 25 | > 25 µM | > 25 µM | > 25 | > 25 µM | > 25 | > 25 | > 25 | > 25 | > 25 | > 25 µM | > 25 | > 25 µM | > 25 µM | > 25 | > 25 |
| Fc1ccc2[nH]cc(-c3nonc3-c3c[nH]c4ccc(Br)cc34)c2c1 | 1.88 | 6.01 µM | 1.89 | 3.83 | 1.89 | 5.07 µM | 2.34 µM | 7.85 | 2.19 µM | 5.66 | – | – | 2.13 | 5.3 | 3.38 µM | 17.5 | 1.94 µM | 4.2 µM | 4.17 | 13.8 |
| Cc1cc(=O)oc2cc(OC(=O)N(C)C)c(Cl)cc12 | – | > 100 µM | – | > 100 | – | 79 µM | – | > 100 | – | > 100 | – | > 100 | – | > 100 | – | > 100 | – | – | – | > 100 |
| CC(C)=CCc1c(OC(=O)c2c(C)cc(O)cc2O)cc(CO)c(CO)c1O | – | > 100 µM | – | 31.7 | – | – | – | 45.4 | – | 46.5 | – | 63 | – | > 100 | – | 63.9 | – | 37.5 µM | – | > 100 |
| Cn1cc(C2=C(c3cn(CCCCN)c4ccccc34)C(=O)NC2=O)c2ccccc21 | – | – | > 25 | > 25 | > 25 | > 25 µM | > 25 µM | > 25 | > 25 µM | > 25 | > 25 | > 25 | > 25 | > 25 | > 25 µM | > 25 | – | > 25 µM | > 25 | > 25 |
| COc1cc(NC(N)=NCCC(C)(C)Oc2ccc(C(F)(F)F)cc2)ncc1C#N | 1.45 | 2.85 µM | 1.58 | 3.01 | 1.75 | 3.2 µM | 1.81 µM | 3.44 | 1.61 µM | 3.18 | – | – | – | – | 1.79 µM | 3.54 | 1.57 µM | 2.99 µM | 1.7 | 3.11 |
| Cc1ccc(-c2csc(/N=C3\C(=O)Nc4ccccc43)n2)cc1 | 1.52 | 5.86 µM | 1.6 | 3.21 | – | – | 1.52 µM | 3.4 | 1.01 µM | 3.11 | – | – | 1.78 | 3.71 | 2.47 µM | 6.9 | 1.32 µM | 2.87 µM | – | – |
